# According to US20170058264A1, “FORMATION OF MULTICELLULAR TUMOROIDS AND USES THEREOF” (UNIVERSITY OF SOUTH FLORIDA, priority 2014, published 2017):
# Columns and labels:
# Format in all cases: cell-based
# BT474 tumoroids [1] = assay: High-content analysis (Operetta) of Ki-67 immunostaining in BT474 tumoroids; conditions: different concentrations of Lapatinib; about 72 hrs
# Experimental: Quantification of immunostaining was completed using Operetta.
# To optimize quantification of high content imaging for BT474 tumoroids were incubated for 72 h and then imaged on the Operetta HCI System with a 20× objective. Single plane z-stacked images of BT474 tumoroids on scaffolds were stained with DAPI and images were acquired using the Operetta high content imaging system from Perkin Elmer. Representative fields were selected at 20× magnification and z-stacks of these fields were acquired with an interval of 2 um between each z-plane. Z-stacks were analyzed using the image processing software ImageJ (NIH). […] Using HCA we have quantified changes in Ki-67 expression in BT474 tumoroids treated with different concentrations of Lapatinib.
# [2] = system: BT474 tumoroids (SCTs and MCTs); assay: Quantibody Array (multiplexed sandwich ELISA) of factors in day 5 culture supernatants of BT474 SCTs and MCTs
# Experimental: BT474 tumoroids (SCTs, blue bars and MCTs, red bars) were cultured in the presence or absence of Lapatinib (0.5-12.5 μM), as in FIGS. 9A-9B, and the levels of IL-6, IL-8, MCP-1 in the day 5 culture supernatants were determined by Sandwich ELISA (FIGS. 20-21). * p<0.05.
# BT474 tumoroids (SCTs, blue bars and MCTs, red bars) were cultured in the presence or absence of Lapatinib (0.5-12.5 μM), as in FIGS. 9A-9B, and the levels of PDGF-BB, DKK-1, OPG in the day 5 culture supernatants were determined by Sandwich ELISA (FIGS. 20-21). * p<0.05.
# BT474 tumoroids (SCTs, blue bars and MCTs, red bars) were cultured in the presence or absence of Lapatinib (0.5-12.5 μM), as in FIGS. 9A-9B, and the levels of MMP-3 in the day 5 culture supernatants were determined by Sandwich ELISA (FIGS. 20-21). * p<0.05.
# Additionally, to characterize factors and molecules released in SCTs and MCTs culture, a human Quantibody Array (RayBiotech Inc.), which utilizes a multiplexed sandwich ELISA assay and enables detection of multiple proteins/factors simultaneously, was used. […] This list includes adhesion molecules (E-selectin, ICAM-1, P-Cadherin, VE-cadherin), \growth factors (aFGF, activin A, […] (AR), bFGF, bone morphogenic protein (BMP)-2, BMP-4, BMP-6, BMP-7, BMP-9, dickkopf-1 (DKK-1), IGF-1, osteoprotegerin (OPG), osteopontin (OPN), PDGF-BB, TGFβ1, TGFβ2, TGFβ3), chemokines (monocyte chemotactic protein 1 (MCP-1)), macrophage inflammatory protein (MIP)-1α, VCAM-1), cytokines (IL-1α, IL-1β, IL-6, IL-8, IL-11, IL-17, M-CSF), receptor activator of NFkB (RANK), osteoactivin, SDF-1α, TNF related activation induced cytokine (TRANCE)) and matrix metalloproteinases (MMPs), such as MMP-2, -3, -9, -13.
# To determine whether any of these factors are expressed in SCTs and MCTs, we incubated QAH-BMA-1000 array with a pool of culture supernatants of BT474-SCTs and MCTs in quadruplets. Experiments were conducted using manufacturer's protocol. An appropriate positive control was used to normalize the signal intensity. […] These include, growth factors, such as PDGF-BB, OPG and DKK-1, chemokine such as MCP-1, IL-6 and IL-8, and protease MMP-3 (see e.g. FIGS. 23A-25.)
# Lapatinib treated cultures were examined for factors that are found differentially expressed in MCTs, compared to SCTs.
# BT474 tumoroids [3] = assay: VEGF, IL-6 and TGF-β1 in day 5 culture supernatants of BT474 tumoroids by ELISA; conditions: co-cultured tumoroids; Lapatinib about 2.5 μM-5 μM; day 5 supernatants
# Experimental: BT474 tumoroids were monocultured or co-cultured in the presence or absence of Lapatinib (2.5-10 μM) and the levels of VEGF, IL-6, and TGF-β1 in the day 5 culture supernatants were determined by ELISA. * p<0.05.
# To identify and evaluate the biomarkers of clinical efficacy, both monoculture and co-culture tumoroids were treated with increasing concentrations of Lapatinib (about 0 to about 10 μM). Five days after culture, the supernatants of the culture were tested for levels of VEGF, IL-6, and TGF-β. […] BT474 tumoroids were mono-cultured or co-cultured in the presence or absence of Lapatinib (2.5-10 μM) and the levels of VEGF, IL-6, and TGF-β1 in the day 5 culture supernatants were determined by ELISA. * p<0.05.
# BT-474 SCTs = assay: Lapatinib response of BT-474 SCTs cultured on Matrigel or FiSS, Presto Blue cell viability; conditions: 3 d old SCTs; examined after 72 hrs
# Experimental: Cells (3×10^3) were cultured on a layer of Matrigel coated plate in the presence of growth medium supplemented with 10% Matrigel. Three days after culture, cells were treated with indicated concentrations of Lapatinib and examined after 72 hrs. Spheroids were stained with calcein AM and examined by fluorescent microscope.
# To benchmark FiSS-tumoroids against Matrigel-based 3D-culture for prediction of clinical efficacy, 3 d old BT-474 SCTs (cultured on Matrigel or FiSS) were treated with Lapatinib and examined tumoroid formation (FIGS. 26A-26D) and cell viability (FIGS. 27A-27B). Although Matrigel induced numerous smaller size tumoroids compared to FiSS tumoroids, their response to Lapatinib was similar as shown in FIGS. 27A-27B.
# HCC1569 tumoroids = assay: Lapatinib response of HCC1569 tumoroids in monoculture or co-culture, cell viability by PrestoBlue assay; conditions: HCC1569 cultured in the presence of ECs and CAFs vs monoculture
# Experimental: (§1) On day 2 after culturing, cells were treated with the indicated concentrations (μM) of Lapatinib for about 72 hours. Cell viability was measured by PrestoBlue® assay.
# (§2) The sensitivity of tumoroids derived from monoculture or co-culture of BT474 and HCC1569 to Lapatinib was examined. Lapatinib is a dual small molecule tyrosine kinase inhibitor targeting EGFR and HER2. […] Similar results were obtained when established tumoroids were treated with Lapatinib.
# BT474 tumoroids [4] = assay: Lapatinib response of BT474 tumoroids in monoculture or co-culture, cell viability by PrestoBlue assay; conditions: Homo sapiens, BT-474, 72 h, about 72 hours
# Experimental: as §1, §2
# [5] = molecular target: BT474 co-cultured tumoroids; assay: Ki-67 expression by immunohistochemistry and tumoroid formation in Lapatinib treated BT474 tumoroids; conditions: 72 hours
# Experimental: Ki-67 can be used as a surrogate marker of clinical efficacy in cancer trials. Expression of Ki-67. Monoculture and Co-culture tumoroids were treated with increasing concentrations of Lapatinib (0-10 μM). Tumoroids were fixed and immunostained for […].
# [6] = MCTs, Lapatinib 0.5-12.5 μM, dose dependent
compound,measurement,setting,value
CS(=O)(=O)CCNCc1ccc(-c2ccc3ncnc(Nc4ccc(OCc5cccc(F)c5)c(Cl)c4)c3c2)o1 [Lapatinib],"Ki-67 expression (relative intensity, HCA)",BT474 tumoroids [1],dose-dependent Ki-67 expression
same,reduction of MCP-1 expression,"[2]; MCTs, 12.5 uM Lapatinib",≤ 50%
same,DKK-1 expression,"[2]; MCTs, Lapatinib 0.5-12.5 μM",reduced significantly
same,MMP-3 expression,"[2]; MCTs, Lapatinib 0.5-12.5 μM",reduced only marginally
same,IL-6 in culture supernatants,[2]; [6],reduced to basal level
same,IL-8 in culture supernatants,[2]; [6],reduced to basal level
same,PDGF-BB expression,"[2]; SCTs and MCTs, Lapatinib 0.5-12.5 μM",did not alter
same,MCP-1 expression,"[2]; SCTs, Lapatinib 0.5-12.5 μM",abolished MCP-1 expression completely
same,secretion of IL-6,BT474 tumoroids [3],significantly decreased
same,secretion of TGF-β,BT474 tumoroids [3],significantly decreased
same,secretion of VEGF,BT474 tumoroids [3],significantly decreased
same,"response to Lapatinib (cell viability), Matrigel vs FiSS tumoroids",BT-474 SCTs,similar
same,resistance to Lapatinib,HCC1569 tumoroids,increase in resistance
same,IC50,BT474 tumoroids [4]; BT474 cells cultured on 2D or FiSS (monoculture),< 2.5 µM
same,IC50,"BT474 tumoroids [4]; MCTs, in the presence of ECs and CAFs",> 10 µM
same,Ki-67 staining,[5]; Lapatinib 2.5 μM,completely abrogated
same,tumoroid formation,[5]; Lapatinib 2.5 mM as printed,inhibited tumoroid formation
